“Also recorded” adds a separate entry of the source.
Test system: mouse vibrissa follicles
Assay: Mouse vibrissa organ culture system
Type: cell-based, mice
Settings: 4 days
Description: Whisker pads were isolated from three 5 week old female C57/BL mice and were shortly immersed in 70% ethanol in phosphate-buffered saline (PBS), followed by a 10 minute incubation in William's E medium containing 400 U/ml penicillin, 400 μg/ml streptomycin, and 1.0 μg/ml fungizone (all from GibcoBRL). Vibrissa follicles in the anagen growth phase were isolated under a dissecting microscope, and the part of the vibrissa shaft that extend over the epidermal surface was cut off. Vibrissa follicles were then incubated on Millapore membranes in William's E medium alone (n-8), in medium containing 50 ng/ml recombinant murine VEGF (R&D Systems; n=6), or medium containing 5% fetal bovine serum (FBS; n=8). The media were replaced by fresh media after 2 days, and the follicles were incubated over a total period of 4 days. After 4 days, the length of the outgrowing hair shafts was measured by image analysis of digital pictures, taken under a Nikon E600 microscope.
In addition, whisker follicles were isolated and cultured as described above. Seven follicles were treated with 5 μg/ml of a goat anti-mouse VEGF neutralizing antibody (R&D Systems), and 8 follicles were treated with 5 μg/ml of normal goat IgG.

In the case of VEGF, the “average hair growth (length of outgrowing hair shafts)” value (50 ng/ml recombinant murine VEGF, control 1.963±0.101 mm) is reported as 1.959±0.086 mm and the “effect on in vitro hair growth compared with control” value (vibrissa organ culture, absence of a vascular system) is reported as “no significant differences; also recorded: did not influence”.
